Marks after values point to notes of the source that are not given here.
Legend:
[1] = Mortality in indomethacin- and diclofenac-induced enteropathy in rats (Example 17); settings: 14 days, indomethacin […] BID, diclofenac 4 mg/kg BID, omeprazole 0.7 mg/kg/day, gastroresistant rifaximin 50 mg/kg BID, as named in the label
Description: (§1) A total of one hundred forty two (142) male Albino Sprague Dawley rats, 500 to 600 g body weight (40-week old) were assessed.
(§2) Group 1: ten animals treated with drug vehicle for 14 days (normal controls).
(§3) Group 6: twelve omeprazole-treated animals co-treated with gastroresistant rifaximin (50 mg/kg BID) for 14 days (omeprazole controls)
(§4) The enteropathy induced using diclofenac was carried out in the groups 8 to 11 as follows:
(§5) Group 8: fifteen animals treated with diclofenac 4 mg/kg BID (diclofenac ulcerated control
(§6) Group 9: fifteen animals treated with diclofenac 4 mg/kg BID and omeprazole 0.7 mg/kg once daily (diclofenac and omeprazole ulcerated control)
(§7) Group 10: twelve diclofenac-treated animals co-treated with gastroresistant rifaximin (50 mg/kg BID) for 14 days
(§8) Group 11: twelve diclofenac- and omeprazole-treated animals co-treated with gastroresistant rifaximin (50 mg/kg BID) for 14 days
(§9) Groups 1 to 11 were treated as follows:
(§10) Group 1 received 1% methylcellulose (0.3 ml/rat) and 1% methylcellulose (1 ml/rat) for 14 days.
(§11) Group 6 received gastroresistant rifaximin (50 mg/kg; 12 rats/group) suspended in 1% methylcellulose (1 ml/rat), twice daily, 1 hour before omeprazole 0.7 mg/kg once daily
(§12) Group 8 non-fasted rats were treated for 14 days with diclofenac 4 mg/kg BID by intragastric route, suspended in 1% methylcellulose and administered in a volume of 0.3 ml/rat.
(§13) Group 9 non-fasted rats were treated for 14 days with diclofenac 4 mg/kg BID, plus omeprazole 0.7 mg/kg once daily, by intragastric route, suspended in 1% methylcellulose and administered in a volume of 0.3 ml/rat.
(§14) Group 10 received gastroresistant rifaximin (50 mg/kg; 12 rats/group) suspended in 1% methylcellulose (1 ml/rat), twice daily, 1 hour before diclofenac administration
(§15) Group 11 received gastroresistant rifaximin (50 mg/kg; 12 rats/group) suspended in 1% methylcellulose (1 ml/rat), twice daily, 1 hour before diclofenac administration plus omeprazole 0.7 mg/kg once daily.

[2] = Blood hemoglobin levels in indomethacin- and diclofenac-induced enteropathy in rats (Example 17); assay type: in vivo, male Albino Sprague Dawley rats; settings: 14 days; for Blood hemoglobin levels (in words): indomethacin […] BID, diclofenac 4 mg/kg BID, omeprazole 0.7 mg/kg/day, gastroresistant rifaximin 50 mg/kg BID, as named in the label; for Hemoglobin (g/dl): indomethacin […] BID or diclofenac 4 mg/kg BID
Description: as §1, §2, §3, §4, §5, §6, §7, §8, §9, §10, §11, §12, §13, §14, §15
(§16) Twenty four hours after the last dose, the rats were euthanized and samples of blood were collected for the assessment of hemoglobin levels.
Haemoglobin analysis was performed on blood samples collected as reported above, using a Quantichrom Hemoglobin assay kit (Bioassay Systems, Hayward, Calif., USA) and expressed as g/dL.

myeloperoxidase (MPO) [3] = test: Tissue myeloperoxidase (MPO) levels in jejunum and ileum, ELISA (Example 17); assay type: in vivo, male Albino Sprague Dawley rats; settings: rats, indomethacin […] BID or diclofenac 4 mg/kg BID, 14 days
Description: (§17) (indomethacin plus omeprazole ulcerated controls)
as §9
(§18) The whole intestinal tract was removed and intestinal tissue specimens processed for the evaluation of tissue myeloperoxidase (MPO) levels, an index of tissue neutrophils infiltration, of tissue malondialdehyde (MDA) levels, an index of lipid peroxidation and histological analysis of intestinal damage in jejunum and ileum.
MPO was assessed as described by Fornai et al., NSAID-Induced Enteropathy: Are the Currently Available Selective COX-2 Inhibitors All the Same, J Pharmacol Exp Ther January 2014 348:86-95 and assumed as a quantitative index to estimate the degree of intestinal wall infiltration by polymorphonuclear cells.
Specimens of 30 mg intestinal tissues were homogenized on ice with a polytron homogenizer (QIAGEN, Milan, Italy) in 0.6 mL of ice-cold lysis buffer consisting of 200 mM NaCl, 5 mM EDTA, 10 mM Tris, 10% glycerine, 1 mM phenylmethylsulfonyl fluoride, 1 μg/ml leupeptin and 28 μg/ml aprotinin at pH 7.4. The homogenate was centrifuged 2 times at […] at 1.500 g. The supernatant was diluted 1:5 and used for determination of MPO concentration by means of enzyme-linked immunosorbent assay (ELISA). (Hycult Biotech, Uden, Netherlands). All samples were assayed as described in Example 15. The results were expressed as nanograms of MPO per milligram of intestinal tissue.

malondialdehyde (MDA) = test: Tissue malondialdehyde (MDA) levels in jejunum and ileum, colorimetric assay (Example 17); assay type: in vivo, male Albino Sprague Dawley rats; settings: rats, indomethacin […] BID or diclofenac 4 mg/kg BID, 14 days
Description: as §17, §9, §18
MDA concentration in intestinal tissues was determined to obtain quantitative estimates of membrane lipid peroxidation as described by Fornai et al., NSAID-Induced Enteropathy: Are the Currently Available Selective COX-2 Inhibitors All the Same? J Pharmacol Exp Ther January 2014 348:86-95. For this purpose, intestinal tissue was excised, weighed, minced by forceps, homogenized in 2 ml of cold buffer consisting of Tris-HCl 20 mM, at pH 7.4, using a polytron homogenizer (QIAGEN, Milan, Italy), and centrifuged at 1,500 g for 10 min at 4° C. Aliquots of supernatants were then used for subsequent assay procedures. Mucosal MDA concentrations were estimated using a colorimetric assay kit (Cayman Chemical, Ann Arbor, Mich., U.S.A.). Results were expressed as nanomoles of MDA per milligram of intestinal tissue.

[4] = tested on: indomethacin- and diclofenac-induced small intestinal damage; test: Microscopical analysis of small intestinal damage in jejunum and ileum (Example 17); assay type: in vivo, male Albino Sprague Dawley rats; settings: rats, 14 days; for Ileum lesions type 1, 2 and 3 (in words) / Jejunal lesions type 1, 2 and 3 (in words): indomethacin […] BID, diclofenac 4 mg/kg BID, omeprazole 0.7 mg/kg/day, gastroresistant rifaximin 50 mg/kg BID, as named in the label; for Ileum Type 1 lesion (%) / Ileum Type 2 lesion (%) / Ileum Type 3 lesion (%) / Jejunum Type 1 lesion (%) / Jejunum Type 2 lesion (%) / Jejunum Type 3 lesion (%): indomethacin […] BID or diclofenac 4 mg/kg BID
Description: as §2, §3, §4, §5, §6, §7, §8, §9, §10, §11, §12, §13, §14, §15, §18
Upon removal, the whole intestinal tract was immediately injected with 10% formalin and left in the same fixative solution. After 30 min, it was opened along the anti-mesenteric border, cleaned of fecal content and fixed in 10% formalin for 24 h. Tissue samples were taken as described below in order to rule out any bias:
The full length of the small intestine was measured.
Sections of jejunum and ileum were embedded into paraffin blocks and cut into […] serial 7-8 μm sections. The slices were cut at two different points of the block: two on the surface and three at a deeper level. Each slice was placed on the slide for staining with haematoxylin and eosin.
The intestinal damage was classified as reported in Table 27 wherein reference is made with respect to the histological appearance of type 1, 2 and 3 lesions of jejunum and ileum to the illustration of FIG. 1
The statistical significance of data was evaluated by one way analysis of variance (ANOVA) followed by post hoc analysis by Student-Newman-Keuls test, and P values lower than 0.05 were considered significant. All statistical procedures were performed using GraphPad Prism 3.0 software (GraphPad Prism, San Diego, Calif., USA).

[5] = Blood hemoglobin levels in indomethacin-induced enteropathy in rats (Example 16); assay type: in vivo, male Albino Sprague Dawley rats
Description: as §16
Hemoglobin analysis was performed on rat blood samples collected as reported above, by means of Quantichrom Hemoglobin assay kit (Bioassay Systems, Hayward, Calif., USA) and expressed as g/dL.

myeloperoxidase (MPO) [6] = test: Tissue myeloperoxidase (MPO) levels in jejunum and ileum, ELISA (Example 16); assay type: in vivo, male Albino Sprague Dawley rats; settings: rats; indomethacin […] BID 14 days, alone or with gastroresistant rifaximin 25 or 50 mg/kg BID or rifaximin polymorph alpha 50 mg/kg BID
Description: (§19) The whole intestinal tract was removed and processed for the evaluation of tissue myeloperoxidase (MPO) levels and histological analysis of intestinal damage in jejunum and ileum.
Specimens of intestinal tissues (30 mg) were homogenized on ice with a polytron homogenizer (QIAGEN, Milan, Italy) in 0.6 mL of ice-cold lysis buffer (200 mM NaCl, 5 mM EDTA, 10 mM Tris, 10% glycerine, 1 mM PMSF, 1 μg/ml leupeptin and 28 μg/ml aprotinin (pH 7.4). The homogenate was centrifuged 2 times at 4° C. for 15 min at 1.500 g. The supernatant was diluted 1:5 and used for determination of MPO concentration by means of enzyme-linked immunosorbent assay (ELISA) (Hycult Biotech, Uden, Netherlands). All samples were assayed within 2 day after collection. The results were expressed as nanograms of MPO per milligram of intestinal tissue.

[7] = tested on: indomethacin - induced microscopic intestinal damage; test: Histological analysis of intestinal damage in jejunum and ileum (Example 16); assay type: in vivo, male Albino Sprague Dawley rats; settings: rats; indomethacin […] BID 14 days, alone or with gastroresistant rifaximin 25 and 50 mg/kg BID or rifaximin polymorph alpha 50 mg/kg BID
Description: as §19
Pharmacol. Ther. 1993; 7:29-39. Upon removal, the whole intestinal tract was immediately injected with 10% formalin and left in the same fixative solution. After 30 min, it was opened along the anti-mesenteric border, cleaned of fecal content and fixed in 10% formalin for 24 h. Tissue samples were taken as described below and the full length of small intestine was measured.
In particular the following tissue samples were taken • Ileum: 1 cm of tissue proximal to the ileo-cecal valve was discarded and two specimens of 1.5-2 cm of ileum were taken at this edge as well as 5 cm away from the first ileum sample • Proximal jejunum: two specimens of 1.5-2 cm were taken 5 cm away from both the proximal and distal end of the 37.5% of the small intestine total length. • Distal jejunum: two specimens of 1.5-2 cm were taken 5 cm away from both the proximal and distal end of 81% of small intestine's total length.
After fixation, tissues were embedded into paraffin blocks and were cut into consecutive serial 3-μm sections for staining with hematoxylin and eosin. Histological damage was assessed by two observers, blind to the treatment. Each section was given a score of lesion (Type 1 to 3) (TABLE 23).
Quantitative assessment of histological damage was expressed as percentage of the total length of lesions over the total length of the histological section.

O=C(O)Cc1ccccc1Nc1c(Cl)cccc1Cl [Diclofenac, diclofenac]
Mortality (dead/treated animals) [1]: 7/15 | Mortality (%) ([1]; listed as diclofenac): 46.7% | Blood hemoglobin levels (in words) [2]: significant decrease in blood haemoglobin concentration | Hemoglobin (g/dl) [2]: 11.3* g/dl | Ileum MPO (ng/mg tissue) (myeloperoxidase (MPO) [3]): 19.35* ng/mg tissue | Jejunum MPO (ng/mg tissue) (myeloperoxidase (MPO) [3]): 20.37* ng/mg tissue | Ileum MPO (ng/mg tissue) (myeloperoxidase (MPO) [3]; listed as diclofenac): 19.35 ng/mg tissue | Jejunum MPO (ng/mg tissue) (myeloperoxidase (MPO) [3]; listed as diclofenac): 20.37 ng/mg tissue | Ileum MDA (nmol/mg tissue) (malondialdehyde (MDA)): 67.1* nmol/mg tissue | Jejunum MDA (nmol/mg tissue) (malondialdehyde (MDA)): 69.44* nmol/mg tissue | Ileum MDA (nmol/mg tissue) (malondialdehyde (MDA); listed as diclofenac): 67.1 nmol/mg tissue | Jejunum MDA (nmol/mg tissue) (malondialdehyde (MDA); listed as diclofenac): 69.44 nmol/mg tissue | Ileum lesions type 1, 2 and 3 (in words) [4]: occurrence of various degrees of type 1, 2 and 3 lesions in both jejunum and ileum | Jejunal lesions type 1, 2 and 3 (in words) [4]: occurrence of various degrees of type 1, 2 and 3 lesions in both jejunum and ileum | Ileum Type 1 lesion (%) [4]: 26* % | Ileum Type 2 lesion (%) [4]: 8.8* % | Ileum Type 3 lesion (%) [4]: 3* % | Jejunum Type 1 lesion (%) [4]: 24.6* % | Jejunum Type 2 lesion (%) [4]: 4.2* % | Jejunum Type 3 lesion (%) [4]: 0.8* %

COc1ccc2c(c1)c(CC(=O)O)c(C)n2C(=O)c1ccc(Cl)cc1 [Indomethacin, indomethacin]
Reduction in hemoglobin values ([5]; end of the treatment period (14 days), in respect to the control): about 20% | Blood hemoglobin concentration (in words) ([5]; indomethacin […] BID 14 days, alone or with gastroresistant rifaximin at both doses or rifaximin polymorph alpha 50 mg/kg BID): significant decrease in blood hemoglobin concentration | Ileum tissue MPO levels (in words) (myeloperoxidase (MPO) [6]): significant increase in tissue MPO levels | Jejunum tissue MPO levels (in words) (myeloperoxidase (MPO) [6]): significantly increased | Ileum type 1 lesions, microscopic assessment (in words) [7]: occurrence of type 1 and 2 lesions | Ileum type 2 lesions, microscopic assessment (in words) [7]: occurrence of type 1 and 2 lesions | Ileum type 3 lesions, microscopic assessment (in words) [7]: no significant differences were detected for type 3 lesions | Jejunum type 1 lesions, microscopic assessment (in words) [7]: occurrence of various degrees of type 1, 2 and 3 lesions | Jejunum type 2 lesions, microscopic assessment (in words) [7]: occurrence of various degrees of type 1, 2 and 3 lesions | Jejunum type 3 lesions, microscopic assessment (in words) [7]: occurrence of various degrees of type 1, 2 and 3 lesions | Mortality (dead/treated animals) [1]: 2/15 | Blood hemoglobin levels (in words) [2]: significant decrease in blood haemoglobin concentration | Hemoglobin (g/dl) [2]: 11.6* g/dl | Ileum MDA (nmol/mg tissue) (malondialdehyde (MDA)): 54.47* nmol/mg tissue | Jejunum MDA (nmol/mg tissue) (malondialdehyde (MDA)): 66.15* nmol/mg tissue | Ileum MDA (nmol/mg tissue) (malondialdehyde (MDA); listed as indomethacin): 54.47 nmol/mg tissue | Jejunum MDA (nmol/mg tissue) (malondialdehyde (MDA); listed as indomethacin): 66.15 nmol/mg tissue | Ileum lesions type 1, 2 and 3 (in words) [4]: occurrence of various degrees of type 1, 2 and 3 lesions in both jejunum and ileum | Jejunal lesions type 1, 2 and 3 (in words) [4]: occurrence of various degrees of type 1, 2 and 3 lesions in both jejunum and ileum | Ileum Type 1 lesion (%) [4]: 28.3* % | Ileum Type 2 lesion (%) [4]: 11.8* % | Ileum Type 3 lesion (%) [4]: 5.2* % | Jejunum Type 1 lesion (%) [4]: 36* % | Jejunum Type 2 lesion (%) [4]: 18* % | Jejunum Type 3 lesion (%) [4]: 4.6* %
